From patent publication US20100240537A1, “Substituted 6-(alkylbenzylamino)purine derivatives for use as cytokinin receptor antagonists and preparations containing these derivatives” (priority 2007, published 2010)

What was measured:
[1] = tested on: A. thaliana wild-type and double receptor mutant seedlings; assay: Lateral root formation of Arabidopsis seedlings; type: in vivo, Arabidopsis thaliana; details: 1 and 5 nM BA alone, MS medium
Protocol: (A) Number of lateral roots formed by wild-type Arabidopsis seedlings (11 DAG)—from left: DMSO control, formation in the presence of cytokinin BA, or compound 8, and antagonism when both compounds were added. (B) Increase in number of lateral roots found with WT and double-receptor mutant seedlings grown on medium containing compound 8.
Cytokinins are known as negative regulators of root growth and development. We grew A. thaliana wild-type and double receptor mutant seedlings with decreased perception of cytokinins on MS medium containing either 1 and 5 nM cytokinin BA to confirm the cytokinin inhibitory effect on initiation of lateral roots, or 1 and 10 nM compound 8, or combination of these substances in concentrations indicated in FIG. 4A.

melanoma cell line G-361 = assay: Calcein AM cytotoxicity assay, G-361; type: cell-based, human; details: Homo sapiens, G-361, 72 hours
Description: Absence of toxic effects against mammalian (especially human) cell lines in a wide concentration range is one of the requirements on compounds intended for use in agriculture. Because toxic compounds negatively influence metabolic processes in cells, many standard cytotoxicity assays are based on measurement of metabolisation rate of various artificial substrates. Resulting product is then quantified e.g. by means of spectrometry. The assays can be easily modified for use in 96-well plates. For evaluation of cytotoxic effect of the novel substituted 6-(alkylbenzylamino)purine derivatives of this invention, a microtiter assay based on quantification of metabolisation of Calcein AM was used. The assay is widely used in drug screening programs and in chemosensitivity testing. In live cells, Calcein AM is enzymatically hydrolysed and accumulation of resulting calcein is manifested by green fluorescence.
The cells were maintained in Nunc/Corning 80 cm^2 plastic tissue culture flasks and cultured in cell culture medium (DMEM with 5 g/l glucose, 2 mM glutamine, 100 U/ml penicillin, 100 μg/ml streptomycin, 10% fetal calf serum and sodium bicarbonate).
The cell suspensions were prepared and diluted according to the particular cell type and the expected target cell density (10^4 cells per well based on cell growth characteristics) and pippetted (80 μl) into 96-well plates. Inoculates were allowed a pre-incubation period of 24 hours at 37° C., 100% humidity and 5% CO2 for stabilisation. Tested compounds were added in total volume of 20 μl of water at time zero. Usually, test compound was evaluated at six 3-fold dilutions. In routine testing, the highest concentration tested was 100 μM, the eventual changes depended on physico-chemical characteristics of the respective compound. All drug concentrations were tested in triplicates. Incubations of cells with the test compounds lasted for 72 hours at 37° C., in 5% CO2 atmosphere and 100% humidity. At the end of incubation period Calcein AM (Molecular Probes) in PBS was added into final concentration of 1 μg/ml. After another 1 hour of incubation fluorescence (FD) was measured with the Labsystem FIA Reader Fluoroscan Ascent (UK). Growth inhibition (GI) was estimated using the following equitation: GI=(mean FDdrug exposed wells−mean FDblank)/(mean FDcontrol wells−mean FDblank)×100%.

[2] = tested on: Arabidopsis seedlings (wild-type, receptor double mutants); assay: Primary root length of Arabidopsis seedlings; type: in vivo; details: 1 μM
Protocol: FIG. 5 Effect of compound 8 on primary root length of Arabidopsis seedlings. Increase in the length of the primary roots observed in ahk2 ahk3 double mutant seedlings (6 DAG) grown on medium containing 1 μM compound 8.
However, when 1 μM compound 8 was applied to the growth media of ahk2 ahk3 double mutants, significant increase (about 15%) in the length of the primary roots was observed compared to untreated control (FIG. 5).

[3] = tested on: wild-type Arabidopsis seeds; assay: Germination of Arabidopsis seeds; type: in vivo
Protocol: Early germination of wild-type Arabidopsis seeds cultivated on MS medium containing indicated concentrations of compound 8 after replacement from dark to white light (16 h light/8 hours dark).
Subsequent testing confirmed positive effect of the compound 8 on germination. After sowing and pretreatment in dark at 4° C., seeds were transferred to light and ambient temperature. After 30 hours more than 60% of seeds sown on medium containing 1 nM compound 8 were germinating, which was twice as much as in the case of control sown on compound 8 free medium. The number of germinating seeds was further enhanced with higher concentration of compound 8 and 80% of seeds were germinated when 10 nM compound 8 was present in the medium (FIG. 6).

Row | Structure (SMILES) | formation of lateral roots [1] | GI50 (melanoma cell line G-361) | elongation of the primary root, wild-type seedlings ([2]; wild-type) | germinating seeds ([3]; 1 nM in medium, after 30 hours in light) | germinated seeds ([3]; 10 nM in medium) | increase in the length of the primary roots compared to untreated control ([2]; ahk2 ahk3 double mutants, 6 DAG)
1 | c1ccc(CNc2ncnc3nc[nH]c23)cc1 [6-(benzylamino)purine] | inhibited formation of lateral roots | > 100 µM | almost completely inhibited |  |  | 
2 | Cc1cccc(CNc2ncnc3nc[nH]c23)c1O [Compound 8, 6-(2-hydroxy-3-methylbenzylamino)purine] |  | > 50 µM |  | more than 60% | 80% | about 15%
3 | Cc1ccc(O)c(CNc2ncnc3nc[nH]c23)c1 [Compound 10, 6-(2-hydroxy-5-methylbenzylamino)purine] |  | > 100 µM |  |  |  | 
